“Also recorded” adds a separate entry of the source.
Tests used:
Type in all cases: cell-based, human
[1] = test system: voltage-gated sodium channels
[2] = test system: voltage-activated sodium channels
[3] = test system: hESC-derived EBs (H9 and H9.2 lines); assay: Formation of neural tube-like structures from embryoid bodies in the presence of FGF2; settings: total 350 EBs from H9 and H9.2 lines, 3 separate experiments
Description: Differentiation cultures of ESCs. ESC cultures were incubated with dispase (Gibco BRL, 0.1 mg/ml) at 37° C. for 30 minutes, which removed ESC colonies intact. The ES cell colonies were pelleted, resuspended in ESC medium without FGF2, and cultured for four days in a 25-cm^2 tissue culture flask (Nunc) with a daily medium change. ESC colonies grew as floating EBs whereas any remaining feeder cells adhered to the flask. The feeder cells were removed by transferring the EBs into a new flask. EBs (˜50/flask) were then plated in a 25-cm^2 tissue culture flask (Nunc) in DMEM/F12, supplemented with insulin (25 μg/ml), transferrin (100 μg/ml), progesterone (20 nM), putrescine (60 μM), sodium selenite (30 nM), and heparin (2 μg/ml) in the presence of FGF2 (20 ng/ml) (Zhang et al., supra, 2000; Zhang et al., supra, 1999).

[4] = test system: hESC-derived neural precursors; assay: BrdU incorporation by dissociated ES cell-derived neural precursors; settings: FGF2 20 ng/ml, EGF 20 ng/ml, LIF 5 ng/ml; each alone
Description: Histochemical and immunohistochemical staining. To better visualize the rosette formations, cultures with rosettes were rinsed with PBS and fixed in 4% paraformaldehyde and 0.25% glutaraldehyde for 1 hour. The fixed cells were then processed for embedding in plastic resin as described (Zhang et al., supra, 1999). The cultured cells were then sectioned in 1-μm thickness and stained with toluidine blue. For immunostaining, the coverslip cultures were immunostained with the following primary antibodies detected by appropriate fluorescent secondary antibodies detailed elsewhere (Zhang et al., supra, 2000; Zhang et al., supra, 1999): anti-nestin (polyclonal, gift of Dr. R. McKay of NINDS, 1:1,000); anti-polysialylated neuronal cell adhesion molecule (PSA-NCAM, mouse IgM, gift of Dr. G. Rougon of University of Marseille, France, 1:200); anti-Musashi-1 (rat IgG, gift of Dr. H. Okano, University of Tokyo, Japan, 1:500); anti-GFAP (polyclonal, Dako, 1:1,000); anti-human GFAP (Sternberg monoclonals, 1:10,000); O4 (mouse IgM, hybridoma supernatant, 1:50); anti-tyrosine hydroxylase (TH, Pel Freez, 1:500). The remaining antibodies were from Sigma: anti-βIII-tubulin (mouse IgG, 1:500); anti-neurofilament (NF) 68 (mouse IgG, 1:1,000); anti-NF 200 (polyclonal, 1:5,000); anti-MAP2ab (mouse IgG, 1:250); anti-γ-aminobutyric acid (GABA, polyclonal, 1:10,000); anti-glutamate (mouse IgG, 1:10,000). For bromodeoxyuridine (BrdU) incorporation, 4 coverslip cultures in each group were incubated with 2 μM of BrdU for sixteen hours before the cultures were fixed in 4% paraformaldehyde, denatured with 1N HCl and processed for immunolabeling and cell counting (Zhang et al., supra, 2000; Zhang et al., supra, 1999).

[5] = test system: early rosette cells (Pax6+/Sox1-); assay: RT-PCR of rostrocaudal genes in early rosette cells; settings: RA 0.001-1.0 μM or FGF2 20 ng/ml for seven days; dose-dependent
Description: RT-PCR amplifications were performed from hESC-derived neuroectodermal cells at different stages and motor neuron differentiation cultures. The following primers were used: […] ID NO:11), [NT] ID NO:12), 318 bp; […] ID NO:13), [NT] ID NO:14), 290 bp; […] ID NO:15), [NT] ID NO:16), 340 bp; […] ID NO:17), [NT] ID NO:18), 429 bp; HoxBl, [NT] ID NO:19), [NT] ID NO:20), 218 bp; GAPDH, [NT] ID NO:1), [NT] ID NO:2), 450 bpi Olig-2, [NT] ID NO:21), [NT] ID NO:22), 315 bp; […] ID NO:23), [NT] ID NO:24), 337 bp; […] ID NO:25), [NT] ID NO:26), 473 bp; […] ID NO:27), [NT] ID NO:28), 459 bp; SHH, [NT] ID NO:29), [NT] ID NO:30), 339 bp; […] ID NO:31), [NT] ID NO:32), 335 bp.

[6] = test system: hESC-derived neuroepithelial cells; assay: Ventral spinal progenitor and motor neuron differentiation in suspension culture, immunocytochemistry, cell counting and FACS
Description: For motor neuron induction, hESC-derived neuroepithelial cells at day 10 were first treated with RA (0.1 μM) for caudalization in a neural medium, which consisted of DMEM/F12 (Gibco), N2 supplement, heparin (Sigma, 2 μg/ml) and cAMP (Sigma, 1 μM). One week later (day 17), the posteriorized neuroectodermal cells were isolated, and suspended in the same neural medium in the presence of RA (0.1 μM) and SHH (100-200 ng/ml; R&D, 1845-SH) for one week. After that (day 24), brain-derived neurotrophic factor (BDNF), glial-derived neurotrophic factor (GDNF) and insulin-like growth factor-1 (IGF1) (10 ng/ml, PeproTech Inc.) were added to the culture. Purmorphamine (Calbiochem) at different concentrations (0.5, 1, 2 and 5 μM) was used instead of SHH in some experiments (see Results).
Immunohistochemical staining was performed according to Zhang et al., (Zhang et al. (2001), supra). Primary antibodies used in this study included polyclonal antibodies against Olig2 (1:500, Santa Cruz), Ki67 (1:200, Zymed), Otx2 (1:2000, Chemicon) and ChAT (1:200, Chemicon). Antibodies against MNR2 or HB9 (81.5C10) (1:50), Pax7 (1:2000), Nkx2.2 (1:50) and Hoxb4 (1:50) were purchased from Developmental Studies Hybridoma Bank (DSHB, Iowa City, Iowa). Polyclonal Phox2b and Irx3 antibodies were kindly provided by Dr. Jean-François Brunet (CNRS; École Normale Supérieure, Paris) and Dr. Thomas Jessell (Columbia University; New York, N.Y.), respectively. Images were collected using a Spot digital camera mounted onto a Nikon fluorescent microscope 600 (Fryer Inc.; Huntley, Ill.) or a confocal microscope (Nikon; Tokyo, Japan).
The population of Olig2 or HB9-expressing cells among total differentiated cells (Hoechst labeled) was counted in two ways, as previously described (Li et al. (2005), supra). Six to twelve clusters in each group were counted and data were expressed as Mean ± SEM. Differences between groups were compared by ANOVA test, and the statistical significance was defined as two-sided (p=0.05).
Cells were harvested using Accutase® (Innovative Cell), gently dissociated to single cells and washed with a FACS buffer (PBS, 0.1% NaN3, 2% donkey serum). After being fixed and permeabilized with ice cold 0.1% paraformaldehyde for 10 minutes and with 90% methanol for 30 minutes, cells Were then incubated in primary antibody (Olig2, goat IgG, 1:500) or a goat IgG control at […]. Cells were then washed and incubated with a corresponding secondary antibody, such as Alexa 488 conjugated, donkey, anti-goat IgG, for 2 hours followed by washing steps. Cells were analyzed by a Becton Dickinson FACSCaliber and analyzed with CellQuest Pro (BD Biosciences).

SHH pathway = assay: RT-PCR of transcription factors in caudalized NE after 1 week of treatment
Description: Total RNA was extracted from motor neuron differentiation cultures using RNA STAT-60 (Tel-Test, Inc.; […] Carlsbad, Calif.) according to the manufacturer's protocol and was used as templates for the PCR reaction. PCR reaction was performed in a 15 μl mixture containing cDNA, primers and 1×PCR Master mix (Promega; Madison, Wis.). The following primers were used: Olig-2,[NT] ID NO:21), [NT] ID NO:22), 315 bp; […] ID NO:23), [NT] ID NO:24), 337 bp; […] ID NO:25), [NT] ID NO:26), 473 bp; […] ID NO:27), [NT] ID NO:28), 459 bp; […] ID NO:31), [NT] ID NO:32), 335 bp; GAPDH, [NT] ID NO:1), [NT] ID NO:2), 450 bp; […] ID NO:33), [NT] ID NO:34), 269 bp; […] ID NO:35), [NT] ID NO:36), 399 bp; […] ID NO:37), [NT] ID NO:38), 352 bp; and Gli1, [NT] ID NO:39), [NT] ID NO:40), 185 bp.

NC1=N[C@H](O)[C@H]2[C@H]3O[C@]4(O)O[C@@H]([C@@H](O)[C@@]2(N1)[C@@H]4O)[C@]3(O)CO [TTX, tetrodotoxin]
Effect on inward currents [1]: completely blocked | Effect on inward currents and action potentials [2]: blocked

FGF2: growth factor FGF2 (Peprotech; R & D Systems)
EBs forming neural tube-like structures [3]: 94% | BrdU incorporation (stimulation of precursor cell proliferation) [4]: elevated | Expression of Otx2 and Hox genes (Hox B1, B6, C5, C8) [5]: decreased expression of Otx2 and increased expression of Hox genes

c1ccc2c(Oc3nc(Nc4ccc(N5CCOCC5)cc4)c4ncn(C5CCCCC5)c4n3)cccc2c1 [purmorphamine]
Time of treatment until Olig2+ cells first observed ([6]; after isolating NE cells (day 22 of hESC differentiation), a few days earlier than SHH/RA): ≤ 5 days | Olig2+ cells (highest percentage) ([6]; purmorphamine 1 μM with RA, 3.5 weeks, confirmed by FACS): around 40% | Olig2 expression in progenitors ([6]; purmorphamine 0.5, 1 and 2 uM in the presence of RA 0.1 μM, 3.5 weeks): robustly induced; also recorded: dose-dependent manner | Induction of Olig2+ or HB9+ cells ([6]; purmorphamine alone (without RA) from day 17): not sufficient | Expression of Olig2 and HB9 ([6]; purmorphamine with RA, 4.5 week): over 40% | Olig2+ motor neuron progenitors and HB9+ motor neurons of differentiated population ([6]; purmorphamine with RA, 4.5 weeks of hESC differentiation): at least 80% | HB9+ motor neurons also positive for ChAT ([6]; purmorphamine, attachment on coverslips and another week of differentiation): most | Expression pattern of class II factors (Nkx6.1, Nkx2.2) compared with SHH (SHH pathway; 1 week of purmorphamine treatment): almost identical expression pattern | mRNA for Gli1 (SHH pathway; 1 week of treatment): increased levels
